Test [1] concerns B16. Description: Cytotoxicity against mouse B16 cells assessed as cell growth inhibition measured after 48 hrs by MTT assay. The class given is functional.
For test [2], the system named is A 172. Kind of test: Cytotoxicity against human A-172 cells assessed as cell growth inhibition measured after 48 hrs by MTT assay. The class given is functional. In general terms: Tetrazolium dyes change colour on reduction, which living cells bring about.
The test system of test [3] is DLD-1. Description: Cytotoxicity against human DLD-1 cells assessed as cell growth inhibition measured after 48 hrs by MTT assay. Type of test: functional.
Test [4] relates to HeLa. Description: Cytotoxicity against human HeLa cells assessed as cell growth inhibition measured after 48 hrs by MTT assay. Type of test: functional.
Test [5] has as its system SiHa. Kind of test: Cytotoxicity against human SiHa cells assessed as cell growth inhibition measured after 48 hrs by MTT assay. Type of test: functional.
Test [6] in a line: Cytotoxicity against human U87 cells assessed as cell growth inhibition measured after 48 hrs by MTT assay. Conditions: U-87 MG. Type of test: functional, U-87MG ATCC.

Our source for the GI50 values is ChEMBL document CHEMBL5244230, “Artemisinin-derived hybrids and their anticancer activity” (Eur J Med Chem, 2020).

Structures are written as SMILES.

A word on the GI50: it is the concentration giving 50% growth inhibition.

`C[C@H]1[C@H](n2nncc2-c2ccc(F)cc2)O[C@@H]2O[C@@]3(C)CC[C@H]4[C@H](C)CC[C@@H]1[C@@]24OO3`: the GI50 in test [1], in test [2], in test [3], in test [4], in test [5] and in test [6] was 0.04 µM each time.
With `C[C@@H]1[C@@H](n2cc(-c3cc(F)cc(F)c3)nn2)O[C@@H]2O[C@@]3(C)CC[C@H]4[C@H](C)CC[C@@H]1[C@@]24OO3`, the concentration for 50% growth inhibition (GI50) in test [1], in test [2], in test [3], in test [4], in test [5] and in test [6] was 0.03 µM in each case.
For the compound `CCCCCc1ccc(-c2cn([C@H]3O[C@@H]4O[C@@]5(C)CC[C@H]6[C@H](C)CC[C@@H]([C@@H]3C)[C@@]46OO5)nn2)cc1`, the GI50 in test [1], in test [2], in test [3], in test [4], in test [5] and in test [6] was 0.03 µM each time.
With `C[C@H]1[C@H](n2nncc2-c2ccc(Cl)cc2)O[C@@H]2O[C@@]3(C)CC[C@H]4[C@H](C)CC[C@@H]1[C@@]24OO3`, the GI50 in test [1], in test [2], in test [3], in test [4], in test [5] and in test [6] was 0.04 µM in each case.
Regarding `Cc1ccc(-c2cnnn2[C@@H]2O[C@@H]3O[C@@]4(C)CC[C@H]5[C@H](C)CC[C@@H]([C@H]2C)[C@@]35OO4)cc1`, the GI50 in test [1], in test [2], in test [3], in test [4], in test [5] and in test [6] was 0.04 µM throughout.
Consider `COc1ccc(-c2cn([C@H]3O[C@@H]4O[C@@]5(C)CC[C@H]6[C@H](C)CC[C@@H]([C@@H]3C)[C@@]46OO5)nn2)cc1`, for which the GI50 in test [1], in test [2], in test [3], in test [4], in test [5] and in test [6] was 0.03 µM each time.
Consider `C[C@@H]1[C@@H](n2cc(-c3ccc(F)cc3)nn2)O[C@@H]2O[C@@]3(C)CC[C@H]4[C@H](C)CC[C@@H]1[C@@]24OO3`, for which the GI50 in test [1], in test [2], in test [3], in test [4], in test [5] and in test [6] was 0.03 µM throughout.
For the compound `C[C@@H]1[C@@H](n2cc(-c3cccc(Cl)c3)nn2)O[C@@H]2O[C@@]3(C)CC[C@H]4[C@H](C)CC[C@@H]1[C@@]24OO3`, the GI50 in test [1], in test [2], in test [3], in test [4], in test [5] and in test [6] was 0.03 µM throughout.
As for `C[C@@H]1[C@@H](n2cc(-c3ccccc3C(F)(F)F)nn2)O[C@@H]2O[C@@]3(C)CC[C@H]4[C@H](C)CC[C@@H]1[C@@]24OO3`, the 50% growth inhibitory concentration (GI50) in test [1], in test [2], in test [3], in test [4], in test [5] and in test [6] was 0.03 µM each time.
For the compound `C[C@H]1[C@H](n2nncc2-c2ccccc2)O[C@@H]2O[C@@]3(C)CC[C@H]4[C@H](C)CC[C@@H]1[C@@]24OO3`, the GI50 in test [1], in test [2], in test [3], in test [4], in test [5] and in test [6] was 0.04 µM in each case.
